Assay results published in ChEMBL document CHEMBL2396531, “Hybrid molecule from O2-(2,4-dinitrophenyl)diazeniumdiolate and oleanolic acid: a glutathione S-transferase π-activated nitric oxide prodrug with selective anti-human hepatocellular carcinoma activity and improved stability” (J Med Chem, 2013).
Activity calls are given as the source filed them. The rule behind the calls is not given here.

Legend:
HepG2 [1] = assay: Induction of apoptosis in human HepG2 cells assessed as ROS generation at 1.5 to 6 uM after 24 hrs by flow cytometry in presence of Tiron; type: functional, cell-based
HepG2 [2] = assay: Cell cycle arrest in human HepG2 cells assessed as decrease of cells at G0/G1 phase after 24 hrs by flow cytometry; type: functional, cell-based
L02 [3] = assay: Induction of intracellular NO release in human LO2 cells after 6 hrs by Griess assay; type: functional, cell-based
HepG2 [4] = assay: Cell cycle arrest in human HepG2 cells assessed as accumulation at G2/M phase after 24 hrs by flow cytometry; type: functional, cell-based
HepG2 [5] = assay: Induction of apoptosis in human HepG2 cells assessed as incerase in Caspase 3 expression after 24 hrs by Western blotting analysis; type: functional, cell-based
HepG2 [6] = assay: Induction of apoptosis in human HepG2 cells assessed as incerase in Caspase 3 expression at 6 uM by Western blotting analysis; type: functional, cell-based; conditions: TDE = time-dependent effect
HepG2 [7] = assay: Induction of apoptosis in human HepG2 cells assessed as increase in p38 phosphorylation after 24 hrs by Western blotting analysis; type: functional, cell-based
Homo sapiens = species: Homo sapiens; assay: Ratio of Kcat to Km for human GSTalpha
HepG2 [8] = assay: Cytotoxicity against human HepG2 cells at 10 to 100 uM after 24 hrs by MTT assay; type: functional, cell-based
HepG2 [9] = assay: Induction of apoptosis in human HepG2 cells assessed as increase in JNK phosphorylation after 24 hrs by Western blotting analysis; type: functional, cell-based
HepG2 [10] = assay: Induction of apoptosis in human HepG2 cells assessed as increase in ROS generation at 1.5 to 6 uM after 24 hrs by flow cytometry; type: functional, cell-based
HepG2 [11] = assay: Induction of intracellular NO release in human HepG2 cells at 1.5 to 6 uM after 24 hrs by Griess assay in presence of etacrynic acid; type: functional, cell-based
L02 [12] = assay: Induction of intracellular NO release in human LO2 cells at 6 uM by Griess assay; type: functional, cell-based; conditions: TDE = time-dependent effect
HepG2 [13] = assay: Induction of intracellular NO release in human HepG2 cells after 24 hrs by DAF-FM DA staining-based flow cytometry; type: functional, cell-based
H22 [14] = assay: Antitumor activity against mouse H22 cells […] in mouse assessed as reduction in tumor growth at 153.8 umol/kg, ip after 14 days; type: functional, organism-based
HepG2 [15] = assay: Cytotoxicity against human HepG2 cells after 24 hrs by MTT assay; type: functional, cell-based
HepG2 [16] = assay: Induction of intracellular NO release in human HepG2 cells after 6 hrs by Griess assay; type: functional, cell-based
HepG2 [17] = assay: Induction of apoptosis in human HepG2 cells assessed as incerase in Bax expression after 24 hrs by Western blotting analysis; type: functional, cell-based
HepG2 [18] = assay: Induction of apoptosis in human HepG2 cells assessed as loss of mitochondrial membrane potential at 1.5 to 6 uM after 24 hrs by JC-1 staining-based flow cytometry; type: functional, cell-based
HepG2 [19] = assay: Induction of apoptosis in human HepG2 cells assessed as incerase in Caspase 9 expression at 6 uM by Western blotting analysis; type: functional, cell-based; conditions: TDE = time-dependent effect
HepG2 [20] = assay: Induction of apoptosis in human HepG2 cells assessed as incerase in Cyt c expression at 6 uM by Western blotting analysis; type: functional, cell-based; conditions: TDE = time-dependent effect
HepG2 [21] = assay: Induction of apoptosis in human HepG2 cells assessed as incerase in Bax expression at 6 uM by Western blotting analysis; type: functional, cell-based; conditions: TDE = time-dependent effect
HepG2 [22] = assay: Induction of intracellular NO release in human HepG2 cells at 1.5 to 6 uM after 24 hrs by Griess assay in presence of carboxy-PTIO; type: functional, cell-based
H22 [23] = assay: Antitumor activity against mouse H22 cells […] in ip dosed mouse assessed as reduction in tumor weight after 14 days relative to vehicle-treated control; type: functional, organism-based
HepG2 [24] = assay: Induction of intracellular NO release in human HepG2 cells at 6 uM by Griess assay; type: functional, cell-based; conditions: TDE = time-dependent effect
H22 [25] = assay: Antitumor activity against mouse H22 cells […] in ip dosed mouse assessed as reduction in tumor volume after 14 days relative to vehicle-treated control; type: functional, organism-based
HepG2 [26] = assay: Induction of apoptosis in human HepG2 cells assessed as incerase in Cyt c expression after 24 hrs by Western blotting analysis; type: functional, cell-based
HepG2 [27] = assay: Induction of apoptosis in human HepG2 cells at 3 uM after 24 hrs by Western blotting analysis in presence of Tiron; type: functional, cell-based
HepG2 [28] = assay: Induction of apoptosis in human HepG2 cells at 3 uM after 24 hrs by Western blotting analysis in presence of carboxy-PTIO; type: functional, cell-based
HepG2 [29] = assay: Induction of intracellular NO release in human HepG2 cells at 30 uM after 6 hrs by Griess assay; type: functional, cell-based
HepG2 [30] = assay: Cytotoxicity against human HepG2 cells at 5 t0 35 uM by MTT assay; type: functional, cell-based; conditions: TDE = time-dependent effect
HepG2 [31] = assay: Induction of apoptosis in human HepG2 cells assessed as increase in JNK phosphorylation at 3 uM by Western blotting analysis; type: functional, cell-based; conditions: TDE = time-dependent effect
HepG2 [32] = assay: Induction of intracellular NO release in human HepG2 cells at 1.5 to 6 uM after 24 hrs by DAF-FM DA staining-based flow cytometry; type: functional, cell-based
HepG2 [33] = assay: Induction of apoptosis in human HepG2 cells assessed as reduction in Bcl2 expression after 24 hrs by Western blotting analysis; type: functional, cell-based
HepG2 [34] = assay: Induction of apoptosis in human HepG2 cells assessed as incerase in Caspase 9 expression after 24 hrs by Western blotting analysis; type: functional, cell-based
HepG2 [35] = assay: Induction of apoptosis in human HepG2 cells assessed as increase in ERK phosphorylation after 24 hrs by Western blotting analysis; type: functional, cell-based
HepG2 [36] = assay: Induction of apoptosis in human HepG2 cells assessed as increase in ERK phosphorylation at 3 uM by Western blotting analysis; type: functional, cell-based; conditions: TDE = time-dependent effect
HepG2 [37] = assay: Induction of intracellular NO release in human HepG2 cells at 1.5 to 6 uM after 24 hrs by Griess assay in presence of hemoglobin; type: functional, cell-based
HepG2 [38] = assay: Induction of apoptosis in human HepG2 cells assessed as reduction in Bcl2 expression at 6 uM by Western blotting analysis; type: functional, cell-based; conditions: TDE = time-dependent effect
HepG2 [39] = assay: Induction of apoptosis in human HepG2 cells at 3 uM after 24 hrs by Western blotting analysis in presence of EA; type: functional, cell-based
HepG2 [40] = assay: Induction of apoptosis in human HepG2 cells after 24 hrs by FITC-Annexin V/PI staining-based flow cytometry; type: functional, cell-based
HepG2 [41] = assay: Cytotoxicity against human HepG2 cells assessed as cell viability at 3 uM after 24 hrs by MTT assay in presence of hemoglobin; type: functional, cell-based
HepG2 [42] = assay: Induction of apoptosis in human HepG2 cells assessed as loss of mitochondrial membrane potential after 24 hrs by JC-1 staining-based flow cytometry; type: functional, cell-based
H22 [43] = assay: Antitumor activity against mouse H22 cells […] in mouse assessed as reduction in tumor growth at 38.3 umol/kg, ip after 14 days; type: functional, organism-based
HepG2 [44] = assay: Induction of apoptosis in human HepG2 cells assessed as increase in p38 phosphorylation at 3 uM by Western blotting analysis; type: functional, cell-based; conditions: TDE = time-dependent effect

CN(CCO)/[N+]([O-])=N\Oc1cc(N2CCN(CC(=O)O[C@H]3CC[C@]4(C)[C@H]5CC=C6[C@@H]7CC(C)(C)CC[C@]7(C(=O)O[C@@H]7O[C@H](CO)[C@H](O)[C@H](O)[C@H]7O)CC[C@@]6(C)[C@]5(C)CC[C@H]4C3(C)C)CC2)c([N+](=O)[O-])cc1[N+](=O)[O-]
Activity (HepG2 [1]): Active
Activity (HepG2 [2]): Dose-dependent effect
Activity (L02 [3]): Dose-dependent effect
Activity (HepG2 [4]): Dose-dependent effect
Activity (HepG2 [5]): Dose-dependent effect
Activity (HepG2 [6]): tde
Activity (HepG2 [7]): Dose-dependent effect
kcat/Km (Homo sapiens): 2730 M⁻¹ s⁻¹
Activity (HepG2 [8]): Active
Activity (HepG2 [9]): Dose-dependent effect
Activity (HepG2 [10]): Active
Activity (HepG2 [11]): Active
Activity (L02 [12]): tde
Activity (HepG2 [13]): Dose-dependent effect
Activity (H22 [14]): Active
Activity (HepG2 [15]): Dose-dependent effect
Activity (HepG2 [16]): Dose-dependent effect
Activity (HepG2 [17]): Dose-dependent effect
Activity (HepG2 [18]): Active
Activity (HepG2 [19]): tde
Activity (HepG2 [20]): tde
Activity (HepG2 [21]): tde
Activity (HepG2 [22]): Active
Activity (H22 [23]): Dose-dependent effect
Activity (HepG2 [24]): tde
Activity (H22 [25]): Dose-dependent effect
Activity (HepG2 [26]): Dose-dependent effect
Activity (HepG2 [27]): Active
Activity (HepG2 [28]): Active
Activity (HepG2 [29]): Active
Activity (HepG2 [30]): tde
Activity (HepG2 [31]): tde
Activity (HepG2 [32]): Active
Activity (HepG2 [33]): Dose-dependent effect
Activity (HepG2 [34]): Dose-dependent effect
Activity (HepG2 [35]): Dose-dependent effect
Activity (HepG2 [36]): tde
Activity (HepG2 [37]): Active
Activity (HepG2 [38]): tde
Activity (HepG2 [39]): Active
Activity (HepG2 [40]): Dose-dependent effect
Activity (HepG2 [41]): Active
Activity (HepG2 [42]): Dose-dependent effect
Activity (H22 [43]): Active
Activity (HepG2 [44]): tde
